Patent publication US20080112927A1, “Cells and methods utilizing same for modifying the electrophysiological function of excitable tissues” (GeneGrafts Ltd., priority 2006, published 2008)

How the values were obtained:
[1] = test system: cultured neuronal network (cortical neurons); experiment: Spiking activity of cultured cortical neuronal network on multi electrode array (MEA); format: cell-based, rat
Experimental: Cortical neurons were obtained from newborn rats within 24 hours from birth, following standard harvesting procedures (Culturing nerve cells, 2nd edition, Gary Ranker and Kimberly Goslin, 1998). The cortex tissue was digested enzymatically and mechanically dissociated and the neurons were plated directly onto substrate-integrated multi-electrode array (MEA) dishes prepared as described below. The cultures were bathed in MEM which was supplemented with heat-inactivated horse serum (5%), Glutamine (0.5 mM), Glucose (20 mM), and Gentamycin (10 μg/ml), and maintained in a tissue culture incubator at 37° C., 5% CO2 and 95% during the recording phases. Half of the medium was exchanged twice a week and the experiments were performed during the third week following plating, thus allowing complete maturation of the neurons (FIGS. 1a-b).
Arrays of 60 Ti/Au/TiN electrodes, 30 μm in diameter, spaced 200 μm from each other (MultiChannelSystems (MCS), Reutlingen, Germany) were utilized in the present study. The insulation layer (silicon nitride), was pretreated with poly-L-lysine forming a good surface for network development. A commercial 60-channel amplifier (B-MEA-1060, MCS, Reutlingen, Germany) with frequency limit range of 10-3000 Hz and a gain of ×1024 was utilized for signal amplification. The amplifier was connected to MCPPlus filter amplifiers (Alpha Omega, Nazareth, Israel) for further amplification (×10 to ×20). Stimulation through the MEA was performed using a dedicated 8-channel stimulus generator (MCS, Reutlingen, Germany).
In addition, the micro-incubation environment was arranged to support long-term recordings from MEA dishes. This was achieved by streaming a filtered, heated and humidified air/CO2 (95/5%) gas mixture, and by electrically heating the MEA platform to 37° C. Data is digitized using two 5200a/526 A/D boards (Microstar Laboratories, Wash., USA).
Following electrical functionality determination, the neuronal network cultures were incubated with various electrical conduction blockers.

[2] = test system: cardiomyocyte cultures or cardiomyocytes co-cultured with untransfected fibroblasts; experiment: CTX on MEA-recorded activity of control cultures (Example 5); format: cell-based, rat; settings: for increase of spontaneous activity rate: control cultures
Experimental: (§1) Monolayer cultures of neonatal rat ventricular cardiomyocytes (NRVM) were prepared as previously described (Rubin et al, 1995), with some modifications. The cultures were maintained in a humidified incubator under a controlled environment of 5% CO2+95% air at 37° C.; fresh medium was replaced on alternating days.
(§2) Fibroblasts from the NIH 3T3 cell line were transfected with an expression cassette which included a mutant voltage gated potassium channel (Kv1.3) coding sequence (GeneBank Accession number H18261) placed under the transcription control of a constitutive promoter using standard procedures. Fibroblast cultures not transfected with the channel coding sequence were produced from the NIH 3T3 cell-line.
Once well synchronous spontaneous activity was established in the cardiomyocyte cultures, fibroblasts transfected with the Kv1.3 channel coding sequence or non-transfected fibroblasts were added to the cultures. Two different methods where used to seed the fibroblasts. In the first method, the fibroblast were suspended in trypsin for 5 minutes following which they were seeded in a diffuse pattern in the cardiomyocytic cultures (FIG. 4a). […]
Extracellular recordings from cultured cardiomyocytes were performed on a PC-based Microelectrode Data Acquisition System (Multi Channel Systems, Reutlingen, Germany), consisting of Multi-Electrode Array (MEA), pre- and filter-amplifiers, data acquisition board, and software. […] Data were recorded at 10-25 KHz with 12-bit precision. […]
Recorded data was filtered using cutoff frequency of 2 KHz (Fast et al, 1993). […] Conduction velocity was calculated by standard methods (Bayly et al, 1988).
(§3) Conduction block quantification is central to evaluating conduction block development in the cell cultures, and to evaluating reversibility of the conduction block following CTX application. A conduction block was determined using the following algorithm: […]
(§4) Electrical activity of the cultures was recorded on day one immediately prior to seeding of the fibroblasts and then daily until the cultures died or no spontaneous activity was detected. […]

[3] = test system: cardiomyocytes co-cultured with fibroblasts (NIH 3T3) transfected with voltage gated potassium channel Kv1.3; experiment: CTX on MEA-recorded activity of cardiomyocytes co-cultured with Kv1.3 transfected fibroblasts (Example 5); format: cell-based, rat; settings: for increase of spontaneous activity rate: co-cultures with transfected fibroblasts
Experimental: as §1, §2
Once well synchronous spontaneous activity was established in the cardiomyocyte cultures, fibroblasts transfected with the Kv1.3 channel coding sequence or non-transfected fibroblasts were added to the cultures. Two different methods where used to seed the fibroblasts. In the first method, the fibroblast were suspended in trypsin for 5 minutes following which they were seeded in a diffuse pattern in the cardiomyocytic cultures (FIG. 4a). In the second method, the fibroblasts where pipetted up and down through a 5 ml pipette for 2 minutes and seeded in the cardiomyocytic cultures thus were forming clusters of fibroblasts (FIG. 4b).
Extracellular recordings from cultured cardiomyocytes were performed on a PC-based Microelectrode Data Acquisition System (Multi Channel Systems, Reutlingen, Germany), consisting of Multi-Electrode Array (MEA), pre- and filter-amplifiers, data acquisition board, and software. The MEA consists of a 50×50 mm glass substrate, in the center of which is an embedded 0.7×0.7 or 1.4×1.4 mm matrix of 60 Titanium-nitride, gold contacts 10 or 30 μm diameter electrodes insulated with silicone nitride, with inter-electrode distance of 100 or 200 μm (there are no electrodes in the corners of the matrix). Data were recorded at 10-25 KHz with 12-bit precision. During the recording sessions, the MEA (removed from the regular incubator) was constantly perfused with a gas mixture consisting of 5% CO2+95% air. Temperature was kept at 37±0.10° C.
Recorded data was filtered using cutoff frequency of 2 KHz (Fast et al, 1993). The filtered signal was then differentiated digitally to determine the Local Activation Time (LAT) at each electrode, corresponding to dF/dtmin (where F is the filtered signal) (Dolber and Spach, 1986). Color-coded activation maps were constructed by interpolating the LAT values for the sites between the electrodes, and by extrapolating the LAT values for the 4 corners of the MEA matrix. Activation maps were plotted by means of Matlab standard 2-d plotting function (pcolor) (Matlab 5.3 Mathworks Incorporated©). Conduction velocity was calculated by standard methods (Bayly et al, 1988).
as §3, §4

[4] = test system: cardiomyocyte cultures seeded with Kv1.3 expressing fibroblasts; experiment: CTx on spontaneous beating rate of study co-cultures (Kv1.3 expressing fibroblasts) (Example 8); format: cell-based, rat; settings: CTx 100 nM, study group (FIG. 18b)
Experimental: (§5) Expression system and electrophysiological recordings—NIH 3T3 fibroblast cells (ATCC: CRL 1658) were stably transfected to express the voltage gated potassium channel Kv1.3 as previously described [Feld Y. et al. Circulation. (2002); 105:522-529]. Briefly, stable transfection of pRC/CMV/Kv1.3 in fibroblasts was achieved using electroporation with a single pulse of 200 V, 960° F. followed by antibiotic selection of NeoR clones with 400 μg/mL of G-418 (GIBCO, Langley, Okla., USA). Colonies were picked and tested for channel expression using whole-cell patch clamp recordings. The recordings were conducted at room temperature using Axopatch 200 (Axon Instruments). Kv1.3 expressing fibroblast were generated as previously described [Feld Y. et al. Circulation. (2002); 105:522-9]. […]
(§6) Once a well synchronous spontaneous activity was established in the cardiomyocyte cultures, fibroblasts (naïve, or Kv1.3 expressing fibroblasts) were seeded in a diffuse manner into the cardiomyocytic cultures. Two groups were studied: The cultures were studied daily, and the electrophysiological properties, essentially the spontaneous beating rate of the culture, was assessed at baseline and following application of the specific Kv1.3 blocker, Charybdotoxin (CTx), at increasing dosages (1, 10, 100 nM). […]

[5] = test system: cardiomyocyte cultures seeded with naive fibroblasts; experiment: CTx on spontaneous beating rate of control co-cultures (naive fibroblasts) (Example 8); format: cell-based, rat; settings: CTx application, control group
Experimental: as §5, §6

[6] = test system: left ventricular myocardium grafted with naive fibroblasts; experiment: ERP after Margatoxin in rats grafted with naive fibroblasts (control group); format: in vivo, rat; settings: animals grafted with naive fibroblasts, 88±4 ms before blocker
Experimental: Rat model—Male Sprague-Dawley rats weighing 200-250 gr were anesthetized using A Xylasine (0.5 mg/kg) and Ketamine (0.5 mg/kg) preparation [see Example 7]. The animals were then intubated and ventilated using a Harvard small-animal mechanical respirator. The chest wall was opened using a left thoracotomy and the heart was exposed. After removal of the pericardium, a total of 6×10^6 cells (either fibroblasts without transfections in the control group or fibroblast overexpressing the KV1.3 channel in the study group) were transplanted into the anterior aspect of the left ventricular wall using a 28 g needle. In order to prevent graft rejection, all animals were treated with a daily dose of cyclosporin (10 mg/kg) and methyprednisolone (2 mg/kg). […]
In vivo electrophysiological studies—The electrophysiological study in rats included a standard ventricular pacing protocol to determine the local myocardial effective refractory period (ERP). The ERP was evaluated by applying a train of 20 stimuli at a fixed cycle-length of 200 ms (S1), followed by a single premature stimulus (S2). […] The ERP was determined as the shortest S1-S2 coupling interval still capable of eliciting a ventricular response. […]
The ERP was measured at the site of cell transplantation and at remote sites, both prior to cell transplantation and seven days following cell grafting. […]

[7] = test system: Kv1.3 channel of grafted fibroblasts in right ventricle; experiment: ERP after local Margatoxin in pigs grafted with Kv1.3 fibroblasts; format: in vivo, pig
Experimental: Swine model—Three domestic pigs (20-30) kg were studied. Anesthesia was induced with 5-10 ml of intravenous sodium pentothal 2.5% solution and maintained with inhaled isoflurane (2%) in oxygen. Following a right thoracotomy, each heart was exposed and a total of 6×10^6 cells were transplanted at a total of 7 different locations in the anterior free wall of the right ventricle. Cells were delivered using a 25 g needle using an injection volume of 250 μl. The sites of cell transplantation were marked with a suture. To prevent graft rejection, the animals were treated with an immunosuppressive regimen (cyclosporine, 10 mg/kg/d and methylprednisolone, 3 mg/kg/d). 7 days following cell transplantation, a second thoracotomy and a detailed epicardial electrophysiological study were performed.
The ERP in the pigs was measured in a similar manner to that in the rats but using slower basic stimulation intervals (CLs of 350, 400 and 500 ms). The ERP was measured at the site of cell transplantation as well as in remote sites and also following local intramyocardial injection of Margatoxin at the examined sites.

[8] = test system: Kv 1.3 channel of grafted fibroblasts in left ventricular myocardium; experiment: ERP after Margatoxin in rats grafted with Kv1.3 fibroblasts; format: in vivo, rat; settings: 9 μg/kg intraperitoneal bolus; for local ventricular ERP at the site of cell transplantation after MTx, group mean: 154±13 ms before blocker (FIG. 19b)
Experimental: Rat model—Male Sprague-Dawley rats weighing 200-250 gr were anesthetized using A Xylasine (0.5 mg/kg) and Ketamine (0.5 mg/kg) preparation [see Example 7]. The animals were then intubated and ventilated using a Harvard small-animal mechanical respirator. The chest wall was opened using a left thoracotomy and the heart was exposed. After removal of the pericardium, a total of 6×10^6 cells (either fibroblasts without transfections in the control group or fibroblast overexpressing the KV1.3 channel in the study group) were transplanted into the anterior aspect of the left ventricular wall using a 28 g needle. In order to prevent graft rejection, all animals were treated with a daily dose of cyclosporin (10 mg/kg) and methyprednisolone (2 mg/kg). The animals underwent a detailed electrophysiological study (see below) immediately before cell grafting and 7 days post-transplantation.
In vivo electrophysiological studies—The electrophysiological study in rats included a standard ventricular pacing protocol to determine the local myocardial effective refractory period (ERP). The ERP was evaluated by applying a train of 20 stimuli at a fixed cycle-length of 200 ms (S1), followed by a single premature stimulus (S2). The S1-S2 coupling interval was gradually shortened. The ERP was determined as the shortest S1-S2 coupling interval still capable of eliciting a ventricular response. Stimuli were generated using a computer controlled STG 1004 stimulus generator with the matching MC-Stim software (both from Multi Channel Systems, Reutlingen, Germany).
The ERP was measured at the site of cell transplantation and at remote sites, both prior to cell transplantation and seven days following cell grafting. In order to dissect the role of the overexpressed channel in altering the local myocardial electrophysiological properties, the ERP was measured also at each site following application of 9 μg/kg of Margatoxin (Alomone Labs, Jerusalem, Israel), a specific Kv 1.3 channel blocker as an intraperitoneal bolus.

[9] = molecular target: mutant voltage gated potassium channel Kv1.3 (GenBank Accession number H18261) expressed in NIH 3T3 fibroblasts; experiment: cell-based or functional assay

N[C@H](CCCP(=O)(O)O)C(=O)O [APV, D-2-amino-5-phosphonovalerate]
spiking activity ([1]; 20 μM added to the cultured neuronal network): completely abolished

O=[N+]([O-])c1cc2nc(O)c(O)nc2cc1[N+](=O)[O-] [DNQX]
spiking activity ([1]; 10 μM added to the cultured neuronal network): completely abolished

CN1CCc2cc3c(cc2[C@H]1[C@@H]1OC(=O)c2c1ccc1c2OCO1)OCO3 [bicuculin]
spiking activity ([1]; 5 μM added to the cultured neuronal network): completely abolished

Charybdotoxin (QFTNVSCTTSKECWSVCQRLHNTSRGKCMNKKCRCYS) [CTX]
increase of spontaneous activity rate ([2]; CTX 10 nM): did not increase | increase of spontaneous activity rate ([2]; CTX 100 nM): up to 15% | conduction block factor ([2]; application of Charybdotoxin, co-cultures with non-transfected fibroblasts, n=9 (FIG. 11)): minimal response | increase of spontaneous activity rate ([3]; CTX 10 nM): 20% | increase of spontaneous activity rate ([3]; CTX 100 nM): 55% | conduction block factor ([3]; application of Charybdotoxin, co-cultures with Kv1.3 transfected fibroblasts, n=10 (FIG. 11)): substantially decreased | conduction blocks ([3]; following treatment with CTX (10 nM, FIG. 7d; FIG. 11)): reversed | uncoupling effect after fibroblast seeding ([3]; following treatment with CTX (100 nM, FIGS. 6f-g)): reversed | reversibility of the negative chronotropic effect induced by the transfected fibroblast [4]: full reversibility | beating frequency [5]: did not significantly alter

Margatoxin (TIINVKCTSPKQCLPPCKAQFGQSAGAKCMNGKCKCYPH)
local ERP after administration of Mtx, control group [6]: did not change significantly | local ERP after local application of MTx ([7]; pig, basic CL 400 ms, 310 ms before blocker (FIG. 20a)): 220 ms | ventricular ERP after local application of MTx ([7]; pigs, all three CLs (FIG. 20b)): not different from the control sites | local ventricular ERP at the site of cell transplantation after MTx, group mean [8]: 117 ± 7.70 ms | local ventricular ERP at the site of cell transplantation after MTx, group mean ([8]; listed as MTx): 117 ± 8 ms | ventricular ERP at the site of cell grafting after Margatoxin, one of the animals ([8]; 170 ms before blocker (FIG. 19a)): 100 ms

Margatoxin (from UniProt P40755 1-39) (peptide)
local ventricular effective refractory period (ERP) at the graft site in one rat after Margatoxin (170 ms before) [9]: 100 ms
